Marks after values point to notes of the source that are not given here.
What was measured:
[1] = test system: rats with heart failure (left coronary artery ligature); assay: Same rat heart failure model; ivabradine, perindopril or their association; assay type: in vivo; settings: HF rats
Method: (§1) Heart failure was induced in rats by ligature of the left coronary artery (the control animals undergo an operation but are not ligated), which causes ischaemia of part of the wall of the left ventricle. The animals recuperate for 7 days and then, for 12 weeks, they are given either 3 mg/kg of compound A, or 0.4 mg/kg of perindopril, or perindopril and compound A concomitantly.
This effect on systolic function and diastolic function was then studied using the association of perindopril and a different If current inhibitor, ivabradine.

[2] = test system: rats with heart failure (left coronary artery ligature); assay: Heart failure induced in rats by ligature of the left coronary artery; compound A, perindopril or both for 12 weeks; assay type: in vivo, rat; settings: HF rats; for LVEDPVR: compliance of LV; for LVEDPVR / LVEDP / LVESP / LVESPVR / cardiac output / dP/dtmax / dP/dtmin / shortening fraction (% of the diameter of the LV) / Heart rate / tau: compound A 3 mg/kg, perindopril 0.4 mg/kg; for LVEDPVR / LVEDP / LVESP / LVESPVR / cardiac output / dP/dtmax / dP/dtmin / shortening fraction (% of the diameter of the LV) / tau: 12 weeks; for tau: relaxation time
Method: as §1

[3] = Table 4B, ivabradine on its own

COc1cc2c(cc1OC)CC(=O)N(CCCN(C)C[C@H]1Cc3cc(OC)c(OC)cc31)CC2 [ivabradine, 3-{3-[{[(7S)-3,4-dimethoxybicyclo[4.2.0]octa-1,3,5-trien-7-yl]-methyl}(methyl)amino]propyl}-7,8-dimethoxy-1,3,4,5-tetrahydro-2H-3-benzazepin-2-one]
effect on diastolic dysfunction (in words) [1]: comparable to that of perindopril on its own
LVEDPVR [1, 3]: 1.87*^† mmHg/RVU
LVESPVR [1, 3]: 20.63*^† mmHg/RVU

COc1cc2c(cc1OC)CCN(C(=O)CCN(C)C[C@H]1Cc3cc(OC)c(OC)cc31)CC2 [compound A, N-{[(7S)-3,4-dimethoxybicyclo[4.2.0]octa-1,3,5-trien-7-yl]methyl}-3-(7,8-dimethoxy-1,2,4,5-tetrahydro-3H-3-benzazepin-3-yl)-N-methyl-3-oxo-1-propanamine]
effect on compliance of the left ventricle, measured by LVEDPVR (in words) [2]: very clearly improved
effect on end diastolic pressure and relaxation time (in words) [2]: clearly improved
effect on systolic function, seen from the LVESPVR (in words) [2]: improves systolic function
LVEDPVR [2]: 2.70^† mmHg/RVU
LVEDP [2]: 4.89^† mmHg
LVESP [2]: 118 mmHg
LVESPVR [2]: 16.1^† mmHg/RVU
cardiac output [2]: 127 mL/min
dP/dtmax [2]: 6.78 10^3 mmHg/s
dP/dtmin [2]: 5.87 −10^3 mmHg/s
shortening fraction (% of the diameter of the LV) [2]: 18.0 % of the diameter of the LV
Heart rate ([2]; duration of treatment 4 weeks): 349.3 bpm
Heart rate ([2]; duration of treatment 12 weeks): 342.7^† bpm
tau [2]: 8.37^† ms
effect on heart rate (in words) ([2]; vs untreated HF): significant reduction in heart rate

CCC[C@H](N[C@@H](C)C(=O)N1[C@H](C(=O)O)C[C@@H]2CCCC[C@@H]21)C(=O)OCC [perindopril]
effect on systolic function (in words) [1]: improves the systolic function
LVEDP ([1]; Table 4a): 6.88^† mmHg
LVEDPVR ([1]; Table 4a): 2.25^† mmHg/RVU
LVESP ([1]; Table 4a): 102^† mmHg
LVESPVR ([1]; Table 4a): 14.5^† mmHg/RVU
dP/dtmax ([1]; Table 4a): 6.08^† 10^3 mmHg/s
dP/dtmin ([1]; Table 4a): 4.99 −10^3 mmHg/s
tau ([1]; Table 4a): 10.92^† ms
effect on compliance of the left ventricle, measured by LVEDPVR (in words) [2]: very clearly improved
effect on end diastolic pressure and relaxation time (in words) [2]: clearly improved
effect on systolic function, seen from the LVESPVR (in words) [2]: improves systolic function
LVEDPVR [2]: 2.36^† mmHg/RVU
LVEDP [2]: 5.17^† mmHg
LVESP [2]: 99 mmHg
LVESPVR [2]: 16.4^† mmHg/RVU
cardiac output [2]: 142^† mL/min
dP/dtmax [2]: 5.97 10^3 mmHg/s
dP/dtmin [2]: 5.11 −10^3 mmHg/s
shortening fraction (% of the diameter of the LV) [2]: 17.1 % of the diameter of the LV
Heart rate ([2]; duration of treatment 4 weeks): 388.2 bpm
Heart rate ([2]; duration of treatment 12 weeks): 387.7 bpm
tau [2]: 7.31^† ms

Source: US20110306598A1, “Use of the association of a sinus node if current inhibitor and an angiotensin-converting enzyme inhibitor in the treatment of heart failure” (LES LABORATOIRES SERVIER, priority 2010, published 2011)
